Results reported in patent US20260125374A1, “PI3K-ALPHA INHIBITORS AND METHODS OF MAKING AND USING THE SAME” (Relay Therapeutics, Inc., priority 2021, published 2026).
Marks after values point to notes of the source that are not given here.

Experiment: Polymorph screening (equilibration, anti-solvent, slow evaporation, slow cooling, temperature cycling, heating-cooling; XRPD and SFC)
Format: physicochemical
Method: This polymorph screening program of compound I-1 free form was performed with two batches of the pure enantiomer. Both batches are crystalline and is assigned as Form A. The polymorphic behaviors of the enantiomer were investigated by equilibration at 25° C. and 50° C., equilibration under a temperature cycle, crystallization from hot saturated solutions by slow cooling, slow evaporation, precipitation by addition of anti-solvent, and DSC heating-cooling cycle experiments. Relative stability of identified polymorphs was investigated by competitive slurry experiments.
(§1) About 50 mg of I-1 Form A was weighed into a 2 mL glass vial and equilibrated in suitable amount of solvents (pretreated by molecular sieves) at 25° C. for 2 weeks with a stirring plate and with protection from light. Obtained suspensions were filtered with 0.45 μm nylon membrane and the solid parts (wet cake) were investigated by XRPD. When differences were observed, additional investigations were performed (e.g. DSC, TGA, ^1H-NMR, SFC).
as §1, with “into” for “into a”, “vials” for “vial”, “50°” for “25°”, “10 days” for “2 weeks”, “investigation was” for “investigations were”
I-1 Form A was dissolved in a good solvent. […] The solvents used were pretreated by molecular sieve. Precipitates were collected by filtration. The solid part (wet cake) was investigated by XRPD. […] When differences were observed, additional investigations were performed (e.g. DSC, TGA, ^1H-NMR, SFC).
Based on approximate solubility results, I-1 Form A was dissolved in suitable amount of solvents (pretreated by molecular sieves). Obtained solutions were filtered by 0.45 μm nylon filter. […] Solid residues were examined for their polymorphic form. When differences were observed, additional investigations were performed (e.g. DSC, TGA, ^1H-NMR, SFC).
Approximate 50 mg of batch I-1 Form A were dissolved in the minimal amount of selected solvents (without pretreatment by molecular sieves) at 50° C. Obtained solutions were filtered by 0.45 μm nylon filter. […] Precipitates were collected by filtration. The solid parts (wet cake) were investigated by XRPD. When differences were observed, additional investigations were performed (e.g. DSC, TGA, ^1H-NMR, SFC). When no precipitation was obtained or only a few solids were obtained, the solutions were placed at 5° C. for crystallization.
About 50 mg of I-1 Form A was equilibrated in different solvents (pretreated by molecular sieves) under a temperature cycle between 5° C. to 50° C. at a heating/cooling rate of 0.2° C./min for 10 cycles and with protection from light. After 10 cycles, precipitates were collected at 5° C. by filtration. The solid parts (wet cake) were investigated by XRPD. When differences were observed, additional investigations were performed (e.g. DSC, TGA, 1H-NMR, SFC).
Polymorphic behavior of I-1 Form A was investigated by two different heating-cooling cycles of DSC. Cycle 1:30° C. to 280° C. at 10° C./min; 280° C. to −20° C. at 20° C./min; reheat to 300° C. at 10° C./min. Cycle 2:30° C. to 280° C. at 10° C./min; 280° C. to-20° C. at 2° C./min; reheat to 300° C. at 10° C./min.

N#Cc1c(-c2cc(NC(=O)c3cc(F)cc(C(F)(F)F)c3)c3c(c2)C(=O)N[C@H]3c2cc(F)ccc2Cl)ccc2ncnn12 [Compound I-1, (R)-N-(3-(2-chloro-5-fluorophenyl)-6-(5-cyano-[1,2,4]triazolo[1,5-a]pyridin-6-yl)-1-oxoisoindolin-4-yl)-3-fluoro-5-(trifluoromethyl)benzamide]
XRPD (equilibration at 50° C. for 10 days in Ethyl acetate): I-1 Form A
XRPD (equilibration at 50° C. for 10 days in Isopropyl acetate): I-1 Form A
XRPD (equilibration at 50° C. for 10 days in MeOH/water(55:45, v/v) a.w. 0.7): I-1 Form A
XRPD (equilibration at 50° C. for 10 days in Methanol): III-1 Form A
ee %(SFC) (equilibration at 50° C. for 10 days in Methanol, SFC immediately after preparation): ee % (SFC): 48.4%*
XRPD (equilibration at 50° C. for 10 days in Methyl ethyl ketone): I-1 Form A
XRPD (equilibration at 50° C. for 10 days in THF/water(85:15, v/v) a.w. 0.9): I-1 Form A
XRPD (equilibration at 50° C. for 10 days in Water): I-1 Form A
XRPD (equilibration at 50° C. for 10 days in t-Butyl methyl ether): I-1 Form A
ee %(SFC) (equilibration at 50° C. in 1,4-Dioxane, added I-1 Form B seeds and stirred for 4 days): ee %(SFC): 80.1%*
ee %(SFC) (equilibration at 50° C. in 1,4-Dioxane, with molecular sieve and stirred for 6 days): ee %(SFC): 88.26%*
ee %(SFC) (equilibration at 50° C. in 1,4-Dioxane, without molecular sieve and stirred for 6 days): ee %(SFC): 81.26%*
ee %(SFC) (equilibration at 50° C. in THF, added I-1 Form B seeds and stirred for 4 days): ee %(SFC): 82.5%*
ee %(SFC) (equilibration in ACN/water(80:20, v/v), 25° C., pH 7.27, III-1 Form A seeds, 3 days): ee %(SFC): 90.9%*
ee %(SFC) (equilibration in ACN/water(80:20, v/v), 25° C., pH 7.27, III-1 Form A seeds, 8 days): ee %(SFC): 89.3%*
ee %(SFC) (equilibration in ACN/water(80:20, v/v), 50° C., pH 4.48, 3 days): ee %(SFC): 89.6%*
ee %(SFC) (equilibration in ACN/water(80:20, v/v), 50° C., pH 4.48, 5 days): ee %(SFC): 88.9%*
ee %(SFC) (equilibration in ACN/water(80:20, v/v), 50° C., pH 6.79, 3 days): ee %(SFC): 67.4%*
ee %(SFC) (equilibration in EtOH/water(50:50, v/v), 50° C., pH 6.82, 3 days): ee %(SFC): 91.6%*
ee %(SFC) (equilibration in Methanol, 50° C., pH 6.21, 3 days): ee %(SFC): 87.9%*
ee %(SFC) (slow cooling 50° C. to 5° C. from 1,4-Dioxane, SFC immediately after preparation): ee %(SFC): −0.2%*
Comments (outcome) (slow cooling 50° C. to 5° C. from ACN): clear solution
Comments (outcome) (slow cooling 50° C. to 5° C. from Acetone): clear solution
Comments (outcome) (slow cooling 50° C. to 5° C. from Benzyl alcohol): clear solution
Comments (outcome) (slow cooling 50° C. to 5° C. from MEK): clear solution
Comments (outcome) (slow cooling 50° C. to 5° C. from MeOH): clear solution
Comments (outcome) (slow cooling 50° C. to 5° C. from THF): clear solution
XRPD (slow evaporation at room temperature from 1,4-Dioxane): Amorphous form
XRPD (slow evaporation at room temperature from ACN): Amorphous form
XRPD (slow evaporation at room temperature from Acetone): Amorphous form
XRPD (slow evaporation at room temperature from MeOH): III-1D
XRPD (slow evaporation at room temperature from THF): Amorphous form
ee %(SFC) (slow evaporation from MeOH (not pretreated by molecular sieves) at 25° C. for 12 days): ee %(SFC): 98.0%*
ee %(SFC) (slow evaporation from MeOH/DCM(1:1, v/v), added I-1 Form D seeds): ee %(SFC): 88.9%*
ee %(SFC) (slow evaporation from MeOH, SFC immediately after preparation): ee % (SFC): 68.6%*
Comments (outcome) (temperature cycling 5° C. to 50° C. in 1,4-Dioxane, target concentration: 250 mg/mL): Clear solution, target concentration: 250 mg/mL
Comments (outcome) (temperature cycling 5° C. to 50° C. in THF/water(85:15, v/v) a.w. 0.9, target concentration: 250 mg/mL): Clear solution, target concentration: 250 mg/mL
Comments (outcome) (temperature cycling 5° C. to 50° C. in Tetrahydrofuran, target concentration: 250 mg/mL): Clear solution, target concentration: 250 mg/mL
XRPD (temperature cycling 5° C. to 50° C., 10 cycles, in 2-MeTHF): I-1 Form A
XRPD (temperature cycling 5° C. to 50° C., 10 cycles, in ACN/water(80:20, v/v) a.w. 0.9): I-1 Form A
XRPD (temperature cycling 5° C. to 50° C., 10 cycles, in Acetone): I-1 Form A
XRPD (temperature cycling 5° C. to 50° C., 10 cycles, in Acetone/water(60:40, v/v) a.w. 0.8): I-1 Form A
XRPD (temperature cycling 5° C. to 50° C., 10 cycles, in Acetonitrile): I-1 Form A
XRPD (temperature cycling 5° C. to 50° C., 10 cycles, in Benzyl alcohol): I-1 Form A
XRPD (temperature cycling 5° C. to 50° C., 10 cycles, in EtOH/water(50:50, v/v) a.w. 0.9): I-1 Form A
XRPD (temperature cycling 5° C. to 50° C., 10 cycles, in Ethanol): I-1 Form A
XRPD (temperature cycling 5° C. to 50° C., 10 cycles, in Ethyl acetate): I-1 Form A
XRPD (temperature cycling 5° C. to 50° C., 10 cycles, in MeOH/water(55:45, v/v) a.w. 0.7): I-1 Form A
ee %(SFC) (temperature cycling 5° C. to 50° C., 10 cycles, in MeOH/water(55:45, v/v), SFC immediately after preparation): ee %(SFC): 100.0%*
ee %(SFC) (temperature cycling 5° C. to 50° C., 10 cycles, in Methanol, SFC immediately after preparation): ee %(SFC): 89.4%*
XRPD (temperature cycling 5° C. to 50° C., 10 cycles, in Methyl ethyl ketone): I-1 Form A
